{"source": "patent US20240173341A1", "about": "“COMPOSITION FOR AMELIORATING OR TREATING DEMENTIA CONTAINING 2'-FUCOSYLLACTOSE” (Advanced Protein Technologies Corp., priority 2022, published 2024)", "key": {"[1]": {"system": "5×FAD (Aβ plaques) Alzheimer's models", "test": "Water maze test, dementia group", "assay_type": "in vivo, mouse", "procedure": "The experimental animals used herein were 24-week-old 5×FAD (Aβ plaques) Alzheimer's models. The experimental animals were raised at a temperature of 22±3° C., at a relative humidity of 30±10%, and at an illuminance of 150 to 300 Lux for a lighting period of 12 hours (08:00˜20:00), and five or less animals were raised in each polycarbonate cage. The distilled water (DW)-administered group was used as a negative control (vehicle), and a donepezil-administered group was used as a positive control. The term “dementia group” refers to 5×FAD mice administered distilled water and the term “normal group” refers to wild-type mice administered distilled water. 2′-FL was orally administered at various concentrations to wild-type and 5×FAD mouse groups for 8 weeks and then a water maze test was performed. Specifically, a circular water tank with a diameter of 150 cm and a height of 60 cm was filled to a height of 30 cm with water, and an escape platform was installed in one area of the four quadrants of the tank. During the training period, the escape platform was placed 1 cm below the surface of the water in the tank so that it was invisible, training was repeated at the identical water entry point three times a day, and recording was performed using a video tracking system (SMART v3.0 panlab SL). When the experimental animal reached the escape platform within 60 seconds, it was allowed to stay on the escape platform for 15 seconds, and when it could not find the escape platform, it was guided to the escape platform by hand and trained to stay on the escape platform alone for 20 seconds. In the probe test on the 6th day, the escape platform was removed and the experimental animals were allowed to swim freely for 60 seconds. At this time, the time (sec) to first reach the location of the escape platform and the number of target crossings were recorded (FIG. 1). FIG. 1 is a schematic diagram illustrating the water maze test method."}, "wild-type mice": {"system": "wild-type mice", "test": "Water maze test, normal group", "assay_type": "in vivo, mouse", "conditions": "oral 8 weeks, compared to distilled water (vehicle), FIGS. 2 and 3", "procedure": "The distilled water (DW)-administered group was used as a negative control (vehicle), and a donepezil-administered group was used as a positive control. The term “dementia group” refers to 5×FAD mice administered distilled water and the term “normal group” refers to wild-type mice administered distilled water. 2′-FL was orally administered at various concentrations to wild-type and 5×FAD mouse groups for 8 weeks and then a water maze test was performed. Specifically, a circular water tank with a diameter of 150 cm and a height of 60 cm was filled to a height of 30 cm with water, and an escape platform was installed in one area of the four quadrants of the tank. During the training period, the escape platform was placed 1 cm below the surface of the water in the tank so that it was invisible, training was repeated at the identical water entry point three times a day, and recording was performed using a video tracking system (SMART v3.0 panlab SL). When the experimental animal reached the escape platform within 60 seconds, it was allowed to stay on the escape platform for 15 seconds, and when it could not find the escape platform, it was guided to the escape platform by hand and trained to stay on the escape platform alone for 20 seconds. […] At this time, the time (sec) to first reach the location of the escape platform and the number of target crossings were recorded (FIG. 1). […]"}, "[2]": {"system": "5×FAD (Aβ plaques) Alzheimer's models", "test": "Y-maze test", "assay_type": "in vivo, mouse", "conditions": "5×FAD mice, oral 8 weeks, all concentrations, compared to the dementia group; n=8~12, FIG. 6", "procedure": "(§1) The experimental animals used herein were 24-week-old 5×FAD (Aβ plaques) Alzheimer's models. The experimental animals were raised at a temperature of 22±3° C., at a relative humidity of 30±10%, and at an illuminance of 150 to 300 Lux for a lighting period of 12 hours (08:00˜20:00), and five or less animals were raised in each polycarbonate cage.\nThe distilled water (DW)-administered group was used as a negative control (vehicle), and a donepezil-administered group was used as a positive control. The term “dementia group” refers to 5×FAD mice administered distilled water and the term “normal group” refers to wild-type mice administered distilled water. […]\nSpecifically, the arms of the Y-maze were randomly designated as A, B, and C, the mouse was placed on one arm and allowed to move freely for 5 minutes, and then the arm where the mouse entered was recorded. This record was limited to cases where the tail thereof completely entered, and cases where it entered the same arm again were also recorded (FIG. 5). […]\nThe case where the mouse entered three different arms one after another was given one point (actual alteration). Alteration behavior is defined as a case where the mouse enters all of three arms in turn and the result was calculated in accordance with Equation 1 below (maximum change: total number of entries—2)."}, "[3]": {"system": "amyloid beta accumulated in mouse brain tissue", "test": "Amyloid beta accumulation analysis (thioflavin staining of cleared brain tissue)", "assay_type": "in vivo", "conditions": "for Ab number / Ab number/volume: oral, 5×FAD mice", "procedure": "as §1\nThe term “dementia group” refers to 5×FAD mice administered distilled water, and the term “normal group” refers to wild-type mice administered distilled water.\nFor the amyloid beta accumulated in mouse brain tissue, brain tissue over 1 mm in size was made transparent using a tissue transparency technique, stained with thioflavin, imaged in three dimensions, and then quantified as plaques for each brain region using the Imaris program.\nIn addition, three 1 mm-thick brain tissues were collected from each group, the volumes thereof were measured, and the total number of accumulated amyloid beta was measured."}, "[4]": {"system": "phosphorylated tau protein", "test": "Tau protein hyperphosphorylation analysis (IHC)", "assay_type": "in vivo, mouse", "procedure": "The experimental animals used herein were 24-week-old 5×FAD (Aβ plaques) Alzheimer's models. The experimental animals were raised at a temperature of 22±3° C., at a relative humidity of 30±10%, and at an illuminance of 150 to 300 Lux for a lighting period of 12 hours (08:00˜20:00), and five or less animals were raised in each polycarbonate cage. The distilled water (DW)-administered group was used as a negative control (vehicle), and a donepezil-administered group was used as a positive control. The term “dementia group” refers to 5×FAD mice administered distilled water, and the term “normal group” refers to wild-type mice administered distilled water. Hyperphosphorylation (p-tau) of tau protein was analyzed through image observation based on immunohistochemistry (IHC) using an antibody that detects tau protein expressed in mouse brain tissue and phosphorylated tau protein."}, "TNF-α": {"system": "TNF-α", "test": "Neuroinflammatory marker analysis (ELISA), TNF-α", "assay_type": "in vivo, mouse", "conditions": "2′-FL-administered dementia group compared to the dementia group; FIG. 12", "procedure": "(§2) The experimental animals used herein were 24-week-old 5×FAD (Aβ plaques) Alzheimer's models. The experimental animals were raised at a temperature of 22±3° C., at a relative humidity of 30±10%, and at an illuminance of 150 to 300 Lux for a lighting period of 12 hours (08:00˜20:00), and five or less animals were raised in each polycarbonate cage. The distilled water (DW)-administered group was used as a negative control (vehicle), and a donepezil-administered group was used as a positive control. The term “dementia group” refers to 5×FAD mice administered distilled water, and the term “normal group” refers to wild-type mice administered distilled water. The concentrations of neuroinflammatory cytokines, TNF-α and IL-6 in mouse brain tissue homogenates were analyzed using enzyme-linked immunosorbent assay (ELISA)."}, "IL-6": {"system": "IL-6", "test": "Neuroinflammatory marker analysis (ELISA), IL-6", "assay_type": "in vivo, mouse", "conditions": "2′-FL-administered dementia group compared to the dementia group; FIG. 13", "procedure": "as §2"}, "[5]": {"conditions": "2′-FL 300 group, 1st brain tissue"}, "[6]": {"conditions": "2′-FL 300 group, 2nd brain tissue"}, "[7]": {"conditions": "2′-FL 300 group, 3rd brain tissue"}, "[8]": {"conditions": "2′-FL 600 group, 1st brain tissue"}, "[9]": {"conditions": "2′-FL 600 group, 2nd brain tissue"}, "[10]": {"conditions": "2′-FL 600 group, 3rd brain tissue"}, "[11]": {"conditions": "2′-FL 1200 group, 1st brain tissue"}, "[12]": {"conditions": "2′-FL 1200 group, 2nd brain tissue"}, "[13]": {"conditions": "2′-FL 1200 group, 3rd brain tissue"}}, "data": [{"substance": "2′-fucosyllactose [2′-FL]", "values": [{"measurement": "arrival route to the escape platform", "setting": "[1]; 5th day of water maze training, 2′-FL-administered dementia group compared to the dementia group, FIG. 4", "result": "simplified"}, {"measurement": "spatial memory through training", "setting": "[1]; all concentrations, 2′-FL-administered dementia group compared to the dementia group", "result": "significantly improved spatial memory"}, {"measurement": "time to arrive at the escape platform during the water maze training period", "setting": "[1]; dementia group (5×FAD mice), oral 8 weeks, compared to distilled water (vehicle), FIGS. 2 and 3", "result": "reduced the time to arrive at the escape platform"}, {"measurement": "time to arrive at the escape platform during the water maze training period", "setting": "wild-type mice", "result": "reduced the time to arrive at the escape platform"}, {"measurement": "spontaneous alteration (SA)", "setting": "[2]", "result": "significantly increased SA"}, {"measurement": "Ab number", "setting": "[3]; [5]", "result": 23900}, {"measurement": "Ab number/volume", "setting": "[3]; [5]", "result": 8628}, {"measurement": "Ab number", "setting": "[3]; [6]", "result": 26900}, {"measurement": "Ab number/volume", "setting": "[3]; [6]", "result": 9642}, {"measurement": "Ab number", "setting": "[3]; [7]", "result": 42000}, {"measurement": "Ab number/volume", "setting": "[3]; [7]", "result": 12174}, {"measurement": "Ab number", "setting": "[3]; 2′-FL 300 group, Avr. of three brain tissues", "result": 30933}, {"measurement": "Ab number/volume", "setting": "[3]; 2′-FL 300 group, Avr. of three brain tissues, *p ≤ 0.05 vs. Vehicle", "result": "10148*"}, {"measurement": "Ab number", "setting": "[3]; [8]", "result": 32000}, {"measurement": "Ab number/volume", "setting": "[3]; [8]", "result": 11722}, {"measurement": "Ab number", "setting": "[3]; [9]", "result": 38400}, {"measurement": "Ab number/volume", "setting": "[3]; [9]", "result": 11852}, {"measurement": "Ab number", "setting": "[3]; [10]", "result": 20800}, {"measurement": "Ab number/volume", "setting": "[3]; [10]", "result": 5762}, {"measurement": "Ab number", "setting": "[3]; 2′-FL 600 group, Avr. of three brain tissues", "result": 30400}, {"measurement": "Ab number/volume", "setting": "[3]; 2′-FL 600 group, Avr. of three brain tissues, *p ≤ 0.05 vs. Vehicle", "result": "9778*"}, {"measurement": "Ab number", "setting": "[3]; [11]", "result": 34300}, {"measurement": "Ab number/volume", "setting": "[3]; [11]", "result": 10719}, {"measurement": "Ab number", "setting": "[3]; [12]", "result": 31900}, {"measurement": "Ab number/volume", "setting": "[3]; [12]", "result": 7800}, {"measurement": "Ab number", "setting": "[3]; [13]", "result": 37000}, {"measurement": "Ab number/volume", "setting": "[3]; [13]", "result": 12092}, {"measurement": "Ab number", "setting": "[3]; 2′-FL 1200 group, Avr. of three brain tissues", "result": 34400}, {"measurement": "Ab number/volume", "setting": "[3]; 2′-FL 1200 group, Avr. of three brain tissues, *p ≤ 0.05 vs. Vehicle", "result": "10203*"}, {"measurement": "amyloid beta accumulation", "setting": "[3]; brain cortex of dementia group, n=8-12, FIG. 7", "result": "decrease in amyloid beta accumulation"}, {"measurement": "amyloid beta accumulation", "setting": "[3]; brain hippocampus of dementia group, n=8-12, FIG. 8", "result": "decrease in amyloid beta accumulation"}, {"measurement": "accumulation of amyloid beta throughout the brain", "setting": "[3]; dementia group, three 1 mm-thick brain tissues per group, Table 1, FIG. 9", "result": "significantly inhibited"}, {"measurement": "inhibition of tau protein hyperphosphorylation", "setting": "[4]; brain cortex of dementia group, n=8~12, FIG. 10", "result": "no significant effect"}, {"measurement": "inhibition of tau protein hyperphosphorylation", "setting": "[4]; brain hippocampus of dementia group, n=8~12, FIG. 11", "result": "no significant effect"}, {"measurement": "concentration of TNF-α", "setting": "TNF-α", "result": "significantly decreased"}, {"measurement": "concentration of IL-6", "setting": "IL-6", "result": "significantly decreased"}]}]}
